Article PMC5597593, “Polyphenols journey through blood-brain barrier towards neuronal protection” (Scientific Reports, 2017)
“Also recorded” adds a separate entry of the source.

How the values were obtained:
[1] = test system: HBMEC line; test: Endothelial transport across confluent HBMEC two chamber BBB model, LC-Orbitrap MS; format: in vitro ADME, human; details: for Endothelial transport (lower/(upper+lower) compartment): 5 μM in upper chamber, 2 h of incubation
Experimental: We used the well-validated confluent HBMEC two chamber BBB model[32] to investigate endothelium transport with metabolite quantification by Orbitrap LC-MS techniques. (Poly)phenol metabolites were added in the upper chamber and their putative transport through the BBB endothelium assessed after 2 h of incubation (Fig. 1a).
Human brain microvascular endothelial cell (HBMEC) line was used as a simplified and validated in vitro model of the BBB[32], [44], [45], [62]. This cell line was derived from primary cultures of HBMEC transfected with SV40 large T antigen. HBMEC line was cultured in RPMI 1640 medium (Sigma-Aldrich) supplemented with 10% fetal bovine serum (FBS - Biochrom AG), 10% NuSerum IV (BD Biosciences), 1% non-essential amino acids (NEAA - Biochrom AG), 1% minimal essential medium (MEM) vitamins (Biochrom AG), 1 mM sodium pyruvate (Biochrom AG), 2mM L-glutamine (Biochrom AG), and 1% antibiotic-antimycotic solution (Sigma-Aldrich). For immunostaining and cytoprotection studies, cells were seeded at a density of 8 × 10^4 cell/mL in 24-well and 96-well plates, respectively, and treated after 48 h in culture. For integrity and transport studies, cells were seeded on polyester transwell inserts (0.4 μm, Corning Costar Corp., USA) at a density of 8 × 10^4 cell/insert and treated after 8 days in culture. Inserts and plates were coated with rat-tail collagen-I (BD Biosciences, Erembodegem, Belgium) before seeding. All experiments were performed after monolayer formation.
HBMEC were plated in semi-permeable membranes (inserts) placed in cell culture wells. This two-chamber system, where the upper and lower chambers mimic the blood and brain compartments, respectively, and the confluent HBMEC monolayer represents the BBB. Transport assays were conducted in HBSS (Hank’s Balanced Salt Solution) with calcium and magnesium (Gibco), supplemented with 0.1% FBS. Confluent monolayers of HBMEC were incubated with 5 μM of each compound for 2 h, time described for compounds to interact and/or being transported across cells, [69]. […]. Monolayer integrity was ensured in all experiments as described. In the end, cell medium from upper and lower compartments were collected and frozen at −80 °C until analysis. Transport analysis were performed after sample deproteinization by LC-Orbitrap MS as described below.
To 1 mL of upper or lower compartment cell medium it was added: 139 µL of 50% formic acid, ascorbic acid (final concentration of 1 mM) and taxifolin as internal standard (final concentration of 9 µM). To precipitate proteins, 2.5 mL of ACN was added dropwise and samples were vortexed before centrifugation at 3200 g for 15 min. The supernatant was removed and dried under centrifugal evaporation (CentriVap Vaccum Concentrator, Labconco). Samples were dissolved in 5% ACN in 0.1% formic acid and immediately analyzed by LC-Orbitrap MS.
Samples were separated on an HPLC Accela 600 HPLC system (Thermo Scientific, Bremen, Germany) using a C18 Synergi Hydro RP18 column (Phenomenex, Macclesfield, UK) 4 μm particle size and dimensions 2 mm ID × 150 mm. […] Analysis was done on an LTQ OrbitrapTM XL hybrid mass spectrometer (Thermo Scientific, Bremen, Germany).
MS analysis was performed using data-dependent Nth order double play analysis comprising full scan mass range 80–2000 amu, 30 000 resolution, data-type centroid and data dependent MS/MS (60 s of exclusion duration) on the top three most intense ions detected above threshold automatically in the independent scan event. ESI settings were as follows: source voltage, 3.4 kV; capillary temperature was 275 °C with a sheath gas at 40 psi and auxiliary gas at 5 psi. MS data handling software (Xcalibur QualBrowser software, Thermo Electron Corp.) was used to search for predicted metabolites by their appropriate m/z value. All peaks were checked for m/z value and fragmentation products. […]

[2] = parameters: method as in PMID 25571923; details: human plasma samples; cited from earlier work
[3] = test system: HBMEC; test: HBMEC metabolization: search for novel cellular metabolites by LC-Orbitrap MS; format: in vitro ADME, human; details: after addition of Pyr-sulf in upper compartment; compared with acetylcysteine-pyrogallol
Experimental: Search for novel compounds resulting from HBMEC metabolization was performed in the same samples using Xcalibur QualBrowser software using an in-house database of putative bioavailable (poly)phenol metabolites[30]. Putative ID of predicted metabolites was determined by exact mass, according to their appropriate m/z value.

[4] = target: T1, P-gp (Homo sapiens, UniProt P08183); test: P-gp functional assay, Rhodamine 123 accumulation in HBMEC; format: cell-based; details: 5 μM
T1 construct: endogenous in cells; host or cells: HBMEC line (human brain microvascular endothelial cells immortalised with SV40 large T antigen)
T1 sequence (P08183 whole entry): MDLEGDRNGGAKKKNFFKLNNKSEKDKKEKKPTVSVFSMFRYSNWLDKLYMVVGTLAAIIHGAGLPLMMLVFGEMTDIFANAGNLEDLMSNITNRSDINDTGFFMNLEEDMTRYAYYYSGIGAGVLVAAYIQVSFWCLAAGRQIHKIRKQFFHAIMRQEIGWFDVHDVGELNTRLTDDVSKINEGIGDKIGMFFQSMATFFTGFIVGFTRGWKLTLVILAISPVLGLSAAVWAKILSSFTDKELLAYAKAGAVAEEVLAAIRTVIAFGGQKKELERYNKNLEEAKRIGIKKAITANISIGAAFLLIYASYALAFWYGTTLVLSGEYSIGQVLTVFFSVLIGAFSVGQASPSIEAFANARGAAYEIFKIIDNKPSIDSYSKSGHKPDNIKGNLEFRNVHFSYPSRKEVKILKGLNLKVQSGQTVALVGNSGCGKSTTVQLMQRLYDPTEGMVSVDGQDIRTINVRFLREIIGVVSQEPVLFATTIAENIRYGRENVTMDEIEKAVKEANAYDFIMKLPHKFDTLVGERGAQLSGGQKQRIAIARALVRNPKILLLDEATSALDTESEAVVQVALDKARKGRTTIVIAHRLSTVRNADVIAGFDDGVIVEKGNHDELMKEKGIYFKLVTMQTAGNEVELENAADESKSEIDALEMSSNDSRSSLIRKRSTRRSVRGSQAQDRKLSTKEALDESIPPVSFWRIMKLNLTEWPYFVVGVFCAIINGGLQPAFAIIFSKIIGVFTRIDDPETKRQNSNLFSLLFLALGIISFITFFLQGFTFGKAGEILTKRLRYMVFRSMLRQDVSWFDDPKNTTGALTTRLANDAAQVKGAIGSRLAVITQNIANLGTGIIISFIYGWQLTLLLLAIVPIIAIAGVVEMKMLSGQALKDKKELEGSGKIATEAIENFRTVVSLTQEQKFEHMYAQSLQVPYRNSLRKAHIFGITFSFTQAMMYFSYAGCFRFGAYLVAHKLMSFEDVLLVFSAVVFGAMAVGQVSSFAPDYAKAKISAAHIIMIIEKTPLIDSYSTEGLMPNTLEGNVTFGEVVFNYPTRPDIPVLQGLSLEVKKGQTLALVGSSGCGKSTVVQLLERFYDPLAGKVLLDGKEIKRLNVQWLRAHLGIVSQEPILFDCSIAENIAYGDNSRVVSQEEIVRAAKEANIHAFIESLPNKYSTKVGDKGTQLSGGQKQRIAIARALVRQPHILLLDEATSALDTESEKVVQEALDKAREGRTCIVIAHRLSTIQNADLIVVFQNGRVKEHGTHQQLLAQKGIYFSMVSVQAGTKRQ
Experimental: Activity of each efflux transporter was determined by measuring cellular accumulation of respective substrate[65], [66], and results were expressed as fold-change compared to the respective control. […] The solution was quickly removed, HBMEC were washed three times with PBS and solubilized in 0.1 M NaOH. Substrate content was determined using a FLUOstar Omega fluorescent plate reader (BMG Labtechnologies, Ortenberg, Germany; for P-gp, excitation at 505 nm, emission at 534 nm; for MRP1, excitation at 495 nm, emission at 516 nm; for BCRP excitation at 503 nm, emission at 512 nm). […] Protein content was evaluated by the Bradford method[67] using Bio-Rad’s Protein Assay reagent (Bio-Rad).

[5] = test system: HBMEC line; test: Cytoprotection in HBMEC submitted to oxidative stress (H2O2); format: cell-based, human; details: pre-incubation 5 µM 24 h, then 300 µM H2O2 24 h
Experimental: HBMEC were incubated in the presence of H2O2 (Sigma-Aldrich). Briefly, 24 h after seeding, cells growth medium was removed and cells were pre-incubated for 24 h with 5 µM of each compound. After pre-incubation, media was replaced by new media containing 300 µM H2O2, for 24 h[71], [72]. In the end, medium was removed and cell viability was assessed using the CellTiter-Blue® Cell Viability Assay (Promega), according to the manufacturer’s instructions.

[6] = test system: primary mouse cerebellar granule cells; test: Neuroprotection in cerebellar granule cells exposed to glutamate excitotoxicity; format: cell-based; details: pre-incubation 5 µM 24 h, then 100 µM glutamate 24 h
Experimental: Primary cultures of cerebellar granule cells were prepared according to the already described method. Cells were isolated from cerebella of 7d-old BALB-C mice and 0.5 × 10^6 cell/mL were cultured in Neurobasal Medium (Gibco) supplemented with 2% B-27 without antioxidants (Gibco) and 2% KCl (20 mM, Sigma-Aldrich), containing 0.25% L-glutamine (200 mM, Sigma-Aldrich) and 0.48% penicillin-streptomycin (P/S, 5000 U mL^−1, Gibco). Experiments were performed on 24-well plates with coverslips coated with 50 µg/mL poly-D-lysine (Sigma-Aldrich). 20 µM of cytosine arabinoside (Sigma-Aldrich) was added 48 h after inoculation to prevent glia cell proliferation. All the experiments were performed between days 7–11 in culture.
Physiological concentrations (5 µM) of the two most abundant metabolites were added to the cells at 7 d in culture. Cells were then incubated for 24 h and morphology was evaluated. At day 8 in culture, 100 µM of glutamate (Sigma-Aldrich) was added to the respective wells. Cells were incubated for another 24 h, morphology was evaluated and viability determined by fluorescence microscopy through Propidium Iodide (PI) and Hoechst 33342 staining, as previously described.

[7] = test system: 3D aggregates containing neurons and astrocytes (NT2); test: Neuroprotection in 3D co-cultures of neurons and astrocytes (t-BHP injury); format: cell-based, human; details: pre-incubation 5 µM 24 h, then 300 µM t-BHP, 48 h
Experimental: NTera-2/cl.D1 (NT2) cells, obtained from American Type Cell Culture Collection (ATCC), were differentiated in stirred suspension culture systems, as 3D aggregates, as previously described. A single cell suspension of undifferentiated NT2 cells was seeded in DMEM (Dulbeco Minimum Essential Media), 10% FBS, 1% P/S (all from Invitrogen), in a 125 mL spinner vessel equipped with ball impeller (Wheaton). After three days of aggregation, differentiation was induced by addition of 10 µM retinoic acid (Sigma-Aldrich), for three weeks, with a 50% medium exchange performed every 2–3 days. Following this period (from day 24 onwards), the medium was composed by DMEM, 5% FBS, 1% P/S. Stable 3D co-cultures of neurons and astrocytes were maintained up to day 50 of culture and applied in neuroprotection assays (from day 38 to day 50).
Cell viability was accessed before exposure to test compounds, before t-BHP lesion induction and 48 h after lesion induction by PrestoBlue® Cell Viability Reagent (Thermo Fisher Scientific), accordingly to manufacturer’s instructions. Idebenone (provided by Grupo Tecnimede) was used as positive control. Final cell viability was calculated as a percentage of cell viability before lesion induction.

[8] = test system: NF-κB p65; test: NF-κB p65 phosphorylation (ser536) ratio in N9 microglia (western blot); format: cell-based, murine; details: N9 cells; pre-treatment before LPS; 15 to 60 min
Experimental: N9 microglial cells were plated into 6-well plates (5 × 10^5 cells mL^−1) and then pre-incubated with 5 µM of each (poly)phenol metabolite. After 6 h, medium was discarded and cells were washed once with phosphate buffer saline (PBS) prior to addition of fresh medium with 300 ng/mL lipopolysaccharide from Escherichia coli 055:B5 (LPS, Sigma–Aldrich). Pro-inflammatory mediators release to medium were quantified as described below.
NT2 aggregates and N9 protein samples western blot analysis was performed accordingly to[41]. Aggregates were lysed with TX-100 lysis buffer (50 mM Tris, 5 mM EDTA, 150 mM NaCl, 1% Triton X-100, pH 7.4) and N9 protein extraction was performed with RIPA buffer. Primary antibodies were incubated overnight at RT, followed by secondary antibodies (horseradish peroxidase-conjugated, ECL anti-mouse IgG, anti-rat IgG or anti-rabbit IgG; Pierce, Millipore and GE Healthcare), incubated for 2 h at room temperature. Anti-GAPDH antibody (Thermo Scientific) was used as loading control. Primary antibodies used for protein detection were: anti-βIII-Tubulin (Millipore), anti-GFAP (DAKO), and MitoProfile Total OXPHOS WB primary antibody cocktail (Abcam), anti-phospho-NF-κB p65 (ser536) antibody (Cell Signalling), anti-NF-κB p65 (C-20) (Santa Cruz Biotechnology), and anti-IκB-α (C-21) antibody (Santa Cruz Biotechnology). […]

[9] = test system: β-III tubulin; test: Western blot of neuronal marker in 3D aggregates; format: cell-based, human; details: pre-incubation with 5µM Pyr-sulf or 200nM Idebenone, normalized to GAPDH
Experimental: NT2 aggregates and N9 protein samples western blot analysis was performed accordingly to[41]. Aggregates were lysed with TX-100 lysis buffer (50 mM Tris, 5 mM EDTA, 150 mM NaCl, 1% Triton X-100, pH 7.4) and N9 protein extraction was performed with RIPA buffer. Primary antibodies were incubated overnight at RT, followed by secondary antibodies (horseradish peroxidase-conjugated, ECL anti-mouse IgG, anti-rat IgG or anti-rabbit IgG; Pierce, Millipore and GE Healthcare), incubated for 2 h at room temperature. Anti-GAPDH antibody (Thermo Scientific) was used as loading control. Primary antibodies used for protein detection were: anti-βIII-Tubulin (Millipore), anti-GFAP (DAKO), and MitoProfile Total OXPHOS WB primary antibody cocktail (Abcam), anti-phospho-NF-κB p65 (ser536) antibody (Cell Signalling), anti-NF-κB p65 (C-20) (Santa Cruz Biotechnology), and anti-IκB-α (C-21) antibody (Santa Cruz Biotechnology). Membranes were developed using Amersham ECL Prime Western Blotting Detection Reagent (GE Healthcare) and visualized using a ChemiDocTM XRS + System (BioRad).

| Molecule | Endothelial transport (lower/(upper+lower) compartment) [1] | Cmax [2] [nM] | other results |
| --- | --- | --- | --- |
| Cc1ccc(OS(=O)(=O)O)c(O)c1 [4-MeCat-sulf, 4-Methylcatechol O-sulfate] | more effectively transported than catechol-O-sulfate (Cat-sulf); also recorded: higher endothelial transport percentage | 640 ± 500 |  |
| N[C@@H](CCC(=O)N[C@@H](CSc1ccc(O)c(O)c1O)C(=O)NCC(=O)O)C(=O)O [Glutathionyl-pyrogallol] |  |  | Relative abundance (peak areas) of novel metabolite [3]: detected in higher amounts |
| O=S(=O)(O)Oc1cccc(O)c1O [Pyr-1-sulf, Pyrogallol-1-O-sulfate] |  |  | Endothelial transport after 24 h ([1]; Pyr-sulf mixture 5 μM, 24 h incubation): no transport |
| O=S(=O)(O)Oc1ccccc1O [Cat-sulf, Catechol-O-sulfate] |  | 12200 ± 5900 | Endothelial transport after treatment with BCRP specific inhibitor Ko 143 ([1]; 5 μM, 1 μM Ko 143, p < 0.05 relatively to No inhibitor): significant increase; Endothelial transport along time ([1]; 5 μM, 2, 6 and 24 h): significant increase in transport percentage; P-gp activity (Rhodamine 123 accumulation) in the presence of metabolite [4]: no statistically- significant alterations; Cell viability of HBMEC after H2O2 injury [5]: improved cell viability; Cell viability of cerebellar granule cells under glutamate-induced excitotoxicity [6]: improved cell viability; Cell viability of 3D aggregates after t-BHP-induced injury [7]: significant neuroprotection; Kinetics of NF-κB phosphorylated-p65/total p65 ratio [8]: unchanged |
| COc1c(O)cc(C(=O)O)cc1OS(=O)(=O)O [4-MeGA-sulf, 4-O-methylgallic acid-3-O-sulfate] | increased BBB permeation compared with 4-methylgallic acid (4-MeGA) | 2030 ± 1100 |  |
| COc1cc(C(=O)O)ccc1OS(=O)(=O)O [VA-sulf, Vanillic acid 4-O-sulfate] |  | 1340 ± 1300 |  |
| COc1c(O)cccc1OS(=O)(=O)O [2-MePyr-sulf, 2-O-methylpyrogallol-1-O-sulfate] | transported as effectively as Pyr-sulf | 1970 ± 1000 |  |
| COc1c(O)cc(C(=O)O)cc1O [4-MeGA, 4-O-methylgallic acid] |  | 300 ± 100 |  |
| O=S(=O)(O)Oc1c(O)cccc1O [Pyr-2-sulf, Pyrogallol-2-O-sulfate] | detected only Pyr-2-sulf in the basolateral compartment |  |  |
| COC1=C(OC)C(=O)C(CCCCCCCCCCO)=C(C)C1=O [idebenone] |  |  | β-III tubulin protein levels after t-BHP lesion [9]: increased β-III tubulin protein levels |
| 1-O-methylpyrogallol-O-sulfate [1-MePyr-sulf] | less effectively transported | 2880 ± 1800 |  |
